Measured values taken from ChEMBL document CHEMBL4806959, “Antagonistic peptides for frizzled-1 and frizzled-2” (2015).
Active and inactive are the calls of the source. No cut-off for these calls is given here. Positions of bridges follow the written chain, without caps; N, C: chain ends. Residues, ends and D or L forms follow the SMILES beside them.

Assays:
Frizzled-2 [1] = molecular target: T1, Frizzled-2 (Homo sapiens, UniProt Q14332); test: Antagonist activity at Wnt3a-stimulated frizzled-2 (unknown origin) expressed in human HEK293superTOP flash cells incubated for 24 hrs by luciferase reporter gene assay; format: functional, cell-based; details: HEK293
Target sequence in this assay (Q14332 24-565 limits assumed): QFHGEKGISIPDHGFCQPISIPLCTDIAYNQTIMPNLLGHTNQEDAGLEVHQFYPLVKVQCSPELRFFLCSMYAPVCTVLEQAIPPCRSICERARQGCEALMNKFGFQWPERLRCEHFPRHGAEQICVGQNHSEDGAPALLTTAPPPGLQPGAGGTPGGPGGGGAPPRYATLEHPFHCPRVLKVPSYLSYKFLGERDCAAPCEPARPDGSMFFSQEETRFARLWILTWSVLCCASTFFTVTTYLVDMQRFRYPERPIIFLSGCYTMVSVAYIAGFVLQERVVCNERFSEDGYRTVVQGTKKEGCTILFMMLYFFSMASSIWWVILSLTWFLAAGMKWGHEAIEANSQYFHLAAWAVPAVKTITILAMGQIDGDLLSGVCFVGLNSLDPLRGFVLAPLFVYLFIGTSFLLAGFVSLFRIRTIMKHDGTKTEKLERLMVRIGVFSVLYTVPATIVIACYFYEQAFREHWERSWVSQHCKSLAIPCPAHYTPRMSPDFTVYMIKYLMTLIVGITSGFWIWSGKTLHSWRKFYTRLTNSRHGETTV

[2] = molecular target: Frizzled-1 (Homo sapiens) (UniProt Q9UP38); test: Antagonist activity at Wnt3a-stimulated frizzled-1 (unknown origin) expressed in human HEK293superTOP flash cells incubated for 24 hrs by luciferase reporter gene assay; format: functional, cell-based; details: HEK293
Chain of Frizzled-1 (Homo sapiens) (Q9UP38 70-647 limits assumed): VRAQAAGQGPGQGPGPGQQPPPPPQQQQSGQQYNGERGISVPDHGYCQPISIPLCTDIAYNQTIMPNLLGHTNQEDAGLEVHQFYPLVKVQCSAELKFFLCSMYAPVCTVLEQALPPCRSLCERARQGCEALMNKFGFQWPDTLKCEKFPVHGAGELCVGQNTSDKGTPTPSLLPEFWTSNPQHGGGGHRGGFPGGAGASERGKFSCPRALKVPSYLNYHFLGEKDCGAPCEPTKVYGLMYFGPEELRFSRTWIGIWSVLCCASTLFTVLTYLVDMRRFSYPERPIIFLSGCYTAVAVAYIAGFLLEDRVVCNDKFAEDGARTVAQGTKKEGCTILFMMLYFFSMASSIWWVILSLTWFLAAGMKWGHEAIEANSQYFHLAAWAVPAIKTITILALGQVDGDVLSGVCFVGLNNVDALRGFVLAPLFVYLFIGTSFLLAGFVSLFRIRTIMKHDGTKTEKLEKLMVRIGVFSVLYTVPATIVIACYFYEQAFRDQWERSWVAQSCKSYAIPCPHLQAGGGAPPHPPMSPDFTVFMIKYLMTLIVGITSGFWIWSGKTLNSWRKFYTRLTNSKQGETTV

Frizzled-2 [3] = molecular target: T1, Frizzled-2; test: Agonist activity at frizzled-2 (unknown origin) expressed in human HEK293superTOP flash cells by luciferase reporter gene assay; format: functional, cell-based; details: hek293
Target sequence in this assay (Q14332 whole entry): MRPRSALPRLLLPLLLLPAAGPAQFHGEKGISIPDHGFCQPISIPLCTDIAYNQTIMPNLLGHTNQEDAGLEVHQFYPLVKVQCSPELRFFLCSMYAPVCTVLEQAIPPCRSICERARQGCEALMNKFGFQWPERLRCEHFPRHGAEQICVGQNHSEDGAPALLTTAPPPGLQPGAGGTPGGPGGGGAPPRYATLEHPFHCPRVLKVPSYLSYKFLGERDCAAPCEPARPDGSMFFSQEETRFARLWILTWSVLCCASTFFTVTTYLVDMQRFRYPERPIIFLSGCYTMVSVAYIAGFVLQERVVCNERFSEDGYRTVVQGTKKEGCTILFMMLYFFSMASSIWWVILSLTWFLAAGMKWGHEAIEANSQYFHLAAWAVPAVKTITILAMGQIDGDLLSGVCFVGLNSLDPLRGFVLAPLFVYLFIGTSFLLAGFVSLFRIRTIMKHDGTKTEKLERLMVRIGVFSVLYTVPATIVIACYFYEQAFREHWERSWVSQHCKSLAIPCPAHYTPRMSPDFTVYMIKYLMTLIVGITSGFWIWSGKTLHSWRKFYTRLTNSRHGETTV

[4] = molecular target: Frizzled-1 (Homo sapiens) (UniProt Q9UP38); test: Agonist activity at frizzled-1 (unknown origin) expressed in human HEK293superTOP flash cells by luciferase reporter gene assay; format: functional, cell-based; details: HEK293
[5] = molecular target: Frizzled-1 (Rattus norvegicus) (UniProt Q08463); test: Agonist activity at rat frizzled-1 expressed in human HEK293superTOP flash cells by luciferase reporter gene assay; format: cell-based; details: HEK293
Chain of Frizzled-1 (Rattus norvegicus) (Q08463 whole entry): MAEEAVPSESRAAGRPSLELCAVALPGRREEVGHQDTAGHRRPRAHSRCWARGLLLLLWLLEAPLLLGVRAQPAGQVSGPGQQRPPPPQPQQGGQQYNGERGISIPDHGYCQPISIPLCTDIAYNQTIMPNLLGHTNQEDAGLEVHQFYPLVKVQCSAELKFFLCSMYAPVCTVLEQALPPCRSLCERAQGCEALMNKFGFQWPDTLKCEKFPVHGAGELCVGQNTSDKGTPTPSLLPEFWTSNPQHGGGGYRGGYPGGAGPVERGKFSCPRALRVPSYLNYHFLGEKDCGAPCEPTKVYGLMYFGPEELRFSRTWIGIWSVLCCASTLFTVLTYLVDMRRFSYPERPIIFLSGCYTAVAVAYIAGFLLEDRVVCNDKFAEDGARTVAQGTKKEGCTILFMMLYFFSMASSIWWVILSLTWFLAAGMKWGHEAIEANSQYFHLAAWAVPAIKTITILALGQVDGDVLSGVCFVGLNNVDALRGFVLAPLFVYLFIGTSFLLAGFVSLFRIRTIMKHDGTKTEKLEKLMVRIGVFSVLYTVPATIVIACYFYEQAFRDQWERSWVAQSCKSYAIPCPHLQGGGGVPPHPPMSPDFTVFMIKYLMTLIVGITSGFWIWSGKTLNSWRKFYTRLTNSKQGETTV

[6] = molecular target: Frizzled-2 (Rattus norvegicus) (UniProt Q08464); test: Agonist activity at rat frizzled-2 expressed in human HEK293superTOP flash cells by luciferase reporter gene assay; format: cell-based; details: HEK293
Chain of Frizzled-2 (Rattus norvegicus) (Q08464 29-570 limits assumed): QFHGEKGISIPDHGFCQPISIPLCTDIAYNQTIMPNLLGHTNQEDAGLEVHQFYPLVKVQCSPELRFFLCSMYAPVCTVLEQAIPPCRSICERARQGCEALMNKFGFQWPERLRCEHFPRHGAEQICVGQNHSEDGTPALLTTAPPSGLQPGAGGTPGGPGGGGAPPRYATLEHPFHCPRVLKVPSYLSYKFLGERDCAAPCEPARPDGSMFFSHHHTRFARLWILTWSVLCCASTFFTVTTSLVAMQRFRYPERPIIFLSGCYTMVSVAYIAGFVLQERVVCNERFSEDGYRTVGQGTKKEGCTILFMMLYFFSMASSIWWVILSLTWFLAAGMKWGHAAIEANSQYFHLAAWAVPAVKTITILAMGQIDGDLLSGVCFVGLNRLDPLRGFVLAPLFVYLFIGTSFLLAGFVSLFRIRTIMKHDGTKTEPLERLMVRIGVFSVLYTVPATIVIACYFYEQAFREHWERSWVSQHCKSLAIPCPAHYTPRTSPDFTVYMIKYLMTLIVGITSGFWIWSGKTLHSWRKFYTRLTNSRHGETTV

[7] = molecular target: Frizzled-1 (Rattus norvegicus) (UniProt Q08463); test: Agonist activity at rat frizzled-1 expressed in CHO cells by luciferase reporter gene assay; format: cell-based
[8] = molecular target: Frizzled-2 (Rattus norvegicus) (UniProt Q08464); test: Agonist activity at rat frizzled-2 expressed in CHO cells by luciferase reporter gene assay; format: cell-based
[9] = molecular target: Frizzled-1 (Rattus norvegicus) (UniProt Q08463); test: Agonist activity at rat frizzled-1 expressed in African green monkey COS7 cells by luciferase reporter gene assay; format: cell-based
[10] = molecular target: Frizzled-2 (Rattus norvegicus) (UniProt Q08464); test: Agonist activity at rat frizzled-2 expressed in African green monkey COS7 cells by luciferase reporter gene assay; format: cell-based
[11] = molecular target: T2, Frizzled-4 (Homo sapiens) (UniProt Q9ULV1); test: Agonist activity at frizzled-4 (unknown origin) expressed in human HEK293superTOP flash cells by luciferase reporter gene assay; format: functional, cell-based; details: HEK293
T2 sequence (whole entry): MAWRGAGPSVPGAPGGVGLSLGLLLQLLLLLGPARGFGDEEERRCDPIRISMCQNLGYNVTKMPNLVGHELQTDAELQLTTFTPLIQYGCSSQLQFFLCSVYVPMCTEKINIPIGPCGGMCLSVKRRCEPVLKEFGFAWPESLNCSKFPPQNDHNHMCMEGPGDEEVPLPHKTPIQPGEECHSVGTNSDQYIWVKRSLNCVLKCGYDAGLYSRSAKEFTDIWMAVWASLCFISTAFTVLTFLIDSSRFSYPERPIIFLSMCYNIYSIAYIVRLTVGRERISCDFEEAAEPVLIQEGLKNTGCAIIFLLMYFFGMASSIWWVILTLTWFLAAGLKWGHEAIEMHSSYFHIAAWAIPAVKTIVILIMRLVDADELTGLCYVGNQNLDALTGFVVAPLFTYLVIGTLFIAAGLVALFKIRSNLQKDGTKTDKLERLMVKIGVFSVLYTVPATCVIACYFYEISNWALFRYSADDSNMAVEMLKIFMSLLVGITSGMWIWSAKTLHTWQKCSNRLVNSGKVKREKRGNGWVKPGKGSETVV

[12] = molecular target: Frizzled-5 (Homo sapiens) (UniProt Q13467); test: Agonist activity at frizzled-5 (unknown origin) expressed in human HEK293superTOP flash cells by luciferase reporter gene assay; format: functional, cell-based; details: HEK293
Chain of Frizzled-5 (Homo sapiens) (Q13467 whole entry): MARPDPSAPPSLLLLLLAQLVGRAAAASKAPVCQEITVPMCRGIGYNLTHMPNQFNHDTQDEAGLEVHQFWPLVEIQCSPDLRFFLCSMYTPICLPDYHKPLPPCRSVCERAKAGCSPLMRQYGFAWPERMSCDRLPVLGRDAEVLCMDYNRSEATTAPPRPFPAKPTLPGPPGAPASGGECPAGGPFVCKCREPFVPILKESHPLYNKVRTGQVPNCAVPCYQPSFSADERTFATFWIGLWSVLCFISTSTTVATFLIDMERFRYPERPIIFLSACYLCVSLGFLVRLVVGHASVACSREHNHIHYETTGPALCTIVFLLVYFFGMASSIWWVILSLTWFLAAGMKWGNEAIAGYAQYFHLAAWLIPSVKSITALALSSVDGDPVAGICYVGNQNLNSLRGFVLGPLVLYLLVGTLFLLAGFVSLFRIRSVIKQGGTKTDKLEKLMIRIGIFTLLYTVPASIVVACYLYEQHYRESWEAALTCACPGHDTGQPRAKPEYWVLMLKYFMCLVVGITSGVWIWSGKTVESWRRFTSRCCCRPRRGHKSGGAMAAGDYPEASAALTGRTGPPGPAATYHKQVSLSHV

Row | SMILES | inhibition (Frizzled-2 [1]) | inhibition [2] | EC50 (Frizzled-2 [3]) | Activity [4] | Activity [5] | Activity [6] | Activity [7] | Activity [8] | Activity [9] | Activity [10] | Activity [11] | Activity [12]
1 | CC(=O)NCC(=O)N[C@@H](CO)C(=O)N[C@@H](CCCCN)C(=O)NCC(=O)N[C@H](C(=O)N[C@@H](CCC(N)=O)C(=O)NCC(=O)N[C@@H](CCCNC(=N)N)C(=O)N[C@@H](C)C(=O)N[C@@H](CS)C(=O)N[C@@H](CC(N)=O)C(N)=O)[C@@H](C)O (Ac-GSKGTQGRACN-NH2) | inactive | inactive | Not Active | inactive |  |  |  |  |  |  |  | 
2 | CC[C@H](C)[C@H](NC(=O)CNC(C)=O)C(=O)N[C@@H](CCCCN)C(=O)N[C@@H](CCC(=O)O)C(=O)N[C@@H](CS)C(=O)N[C@@H](CCC(N)=O)C(=O)N[C@@H](Cc1ccc(O)cc1)C(=O)N[C@@H](CCC(N)=O)C(=O)N[C@@H](Cc1ccccc1)C(=O)N[C@@H](CCCNC(=N)N)C(=O)N[C@@H](Cc1c[nH]cn1)C(=O)N[C@@H](CCCNC(=N)N)C(=O)N[C@@H](CCCNC(=N)N)C(=O)N[C@@H](Cc1c[nH]c2ccccc12)C(=O)N[C@@H](CC(N)=O)C(=O)N[C@@H](CS)C(=O)N[C@@H](CO)C(=O)N[C@H](C(=O)N[C@H](C(=O)N[C@@H](CC(=O)O)C(N)=O)C(C)C)[C@@H](C)O (Ac-GIKECQYQFRHRRWNCSTVD-NH2) |  |  |  |  | inactive | inactive | inactive | inactive | inactive | inactive |  | 
3 | CSCC[C@H](NC(=O)CNC(=O)[C@H](CO)NC(=O)[C@H](CCCCN)NC(=O)[C@H](CC(N)=O)NC(=O)[C@H](CS)NC(C)=O)C(=O)N[C@@H](CC(=O)O)C(=O)NCC(=O)N[C@@H](CS)C(=O)N[C@@H](CCC(=O)O)C(=O)N[C@@H](CC(C)C)C(N)=O (Ac-CNKSGMDGCEL-NH2) | inactive | inactive | Not Active | inactive |  |  |  |  |  |  |  | 
4 | CC[C@H](C)[C@H](NC(=O)[C@H](CC(N)=O)NC(=O)[C@H](CC(=O)O)NC(=O)[C@H](CO)NC(=O)[C@H](CS)NC(=O)[C@H](CCC(=O)O)NC(=O)CNC(=O)[C@H](Cc1c[nH]c2ccccc12)NC(=O)[C@H](CCC(=O)O)NC(=O)[C@H](Cc1c[nH]c2ccccc12)NC(=O)[C@H](CC(=O)O)NC(=O)CNC(C)=O)C(N)=O (Ac-GDWEWGECSDNI-NH2) | inactive | inactive | Not Active | inactive |  |  |  |  |  |  |  | 
5 | CSCC[C@@H]1NC(=O)CNC(=O)[C@H](CCC(=O)O)NC(=O)[C@H](CO)NC(=O)[C@H]([C@@H](C)O)NC(=O)[C@H](CCCCN)NC(=O)[C@H](CC(N)=O)NC(=O)[C@@H](NC(C)=O)CSSC[C@@H](C(=O)N[C@@H](CCC(=O)O)C(=O)N[C@@H](CC(C)C)C(N)=O)NC(=O)CNC(=O)[C@H](CC(=O)O)NC1=O (Ac-CNKTSEGMDGCEL-NH2; disulfide 1-11) |  |  |  |  |  |  |  |  |  |  | inactive | inactive
6 | CC(=O)NCC(=O)N[C@@H](CO)C(=O)N[C@@H](CS)C(=O)N[C@@H](CO)C(=O)N[C@@H](CC(C)C)C(=O)N[C@@H](CCCCN)C(=O)N[C@H](C(=O)N[C@@H](CS)C(=O)N[C@@H](Cc1c[nH]c2ccccc12)C(=O)N[C@@H](CC(C)C)C(=O)N[C@@H](CCC(N)=O)C(=O)N[C@@H](CC(C)C)C(=O)N[C@@H](C)C(=O)N[C@@H](CC(=O)O)C(N)=O)[C@@H](C)O (Ac-GSCSLKTCWLQLAD-NH2) |  |  |  |  | inactive | inactive | inactive | inactive | inactive | inactive |  | 
7 | CC(=O)N[C@@H](CC(=O)O)C(=O)N[C@@H](CC(C)C)C(=O)N[C@H](C(=O)N[C@@H](Cc1ccc(O)cc1)C(=O)N[C@@H](Cc1ccccc1)C(=O)N[C@@H](CCC(=O)O)C(=O)N[C@@H](CC(C)C)C(=O)N[C@@H](CO)C(=O)N1CCC[C@H]1C(=O)N[C@@H](CC(=O)O)C(=O)N[C@@H](Cc1ccccc1)C(=O)N[C@@H](CS)C(=O)N[C@@H](C)C(N)=O)C(C)C (Ac-DLVYFELSPDFCA-NH2) | inactive | inactive | Not Active | inactive |  |  |  |  |  |  |  | 
8 | CC[C@H](C)[C@H](NC(C)=O)C(=O)N[C@@H](CCC(=O)O)C(=O)N[C@@H](CCC(=O)O)C(=O)N[C@@H](CS)C(=O)N[C@@H](CCC(N)=O)C(=O)N[C@@H](Cc1cnc[nH]1)C(=O)N[C@@H](CCC(N)=O)C(=O)N[C@@H](Cc1ccccc1)C(=O)N[C@@H](CCCNC(=N)N)C(=O)N[C@@H](CC(=O)O)C(=O)N[C@@H](CCCNC(=N)N)C(=O)N[C@@H](CCCNC(=N)N)C(=O)N[C@@H](Cc1c[nH]c2ccccc12)C(=O)N[C@@H](CC(N)=O)C(=O)N[C@@H](CS)C(N)=O (Ac-IEECQHQFRDRRWNC-NH2) | inactive | inactive | Not Active | inactive |  |  |  |  |  |  |  | 
9 | CC(=O)N[C@@H](CS)C(=O)N[C@@H](CCCCN)C(=O)N[C@@H](CS)C(=O)N[C@@H](Cc1cnc[nH]1)C(=O)NCC(=O)N[C@H](C(=O)N[C@@H](CO)C(=O)NCC(=O)N[C@@H](CO)C(=O)N[C@@H](CS)C(=O)N[C@H](C(=O)N[C@H](C(=O)N[C@@H](CCCCN)C(=O)N[C@H](C(=O)N[C@@H](CS)C(=O)N[C@@H](Cc1c[nH]c2ccccc12)C(N)=O)[C@@H](C)O)C(C)C)[C@@H](C)O)C(C)C (Ac-CKCHGVSGSCTVKTCW-NH2) | inactive | inactive | Not Active | inactive |  |  |  |  |  |  |  | 
10 | CSCC[C@H](NC(C)=O)C(=O)N[C@@H](CC(N)=O)C(=O)N[C@@H](CCCNC(=N)N)C(=O)N[C@@H](Cc1cnc[nH]1)C(=O)N[C@@H](CC(N)=O)C(=O)N[C@@H](CC(N)=O)C(=O)N[C@@H](CCC(=O)O)C(=O)N[C@@H](C)C(=O)NCC(=O)N[C@@H](CCCNC(=N)N)C(N)=O (Ac-MNRHNNEAGR-NH2) | inactive | inactive | Not Active | inactive |  |  |  |  |  |  |  | 
